Laboratory results published in PMC8122671, “New Succinimides with Potent Anticancer Activity: Synthesis, Activation of Stress Signaling Pathways and Characterization of Apoptosis in Leukemia and Cervical Cancer Cells” (International Journal of Molecular Sciences, 2021).
Like-named read-outs stand apart in the source and are kept apart here.

What was measured:
[1] = system: HUVEC (normal endothelial) cells; assay: MTT cytotoxicity assay, HUVEC; type: cell-based; conditions: Homo sapiens, read-out: IC50 HUVEC
Method: (§1) The cytotoxicity of new derivatives of dicarboximides was tested in HeLa (cervix carcinoma cell line), K562 (myelogenous leukemia cell line), MOLT-4 (Human T-Lymphoid Cell Line), and HUVEC (normal endothelial) cells. First, the viability of cells was determined after 48 h incubation with the screened compounds used at the concentration of 100 μM (data not shown). […] Cells exposed to 1% DMSO (as vehicle) served as the control with 100% survival.
(§2) Human umbilical vein endothelial cells (Life Technologies, Carlsbad, CA, USA) were cultured (according to the manufacturer’s instructions) in Medium 200 containing low serum growth supplement; 1 × 10^4 cells were seeded on each well on a 96-well plate (Nunc, Roskilde, Denmark). The HeLa (human cervix carcinoma), K562, and MOLT-4 (leukemia) cells were cultured in RPMI 1640 medium supplemented with antibiotics and 10% fetal calf serum in a 5% CO2–95% air atmosphere; 7 × 10^3 cells were seeded on each well on a 96-well plate (Nunc). Twenty-four hours later, cells were exposed to the test compounds for additional 48 hours. Stock solutions of test compounds were freshly prepared in DMSO. The final concentrations of the compounds tested in the cell cultures were 2 × 10^−1, 1 × 10^−1, 5 × 10^−2, 1 × 10^−2, 1 × 10^−3, and 1 × 10^−4 mM. The concentration of DMSO in the cell culture medium was 1%. The values of IC50 (the concentration of test compound required to reduce the cell survival fraction to 50% of the control) were calculated from dose–response curves and used as a measure of cellular sensitivity to a given treatment. The cytotoxicity of all compounds was determined by the MTT [3-(4,5-dimethylthiazol-2-yl)-2,5-diphenyltetrazolium bromide; Sigma, St. Louis, MO, USA] assay. Briefly, after 24 or 48 h of incubation with drugs, the cells were treated with the MTT reagent, and incubation was continued for 2 h. MTT-formazan crystals were dissolved in 20% SDS and 50% DMF at pH 4.7, and absorbance was read at 570 and 650 nm on a microplate reader FLUOstar Omega (BMG Labtech, Offenburg, Germany). As a control (100% viability), we used cells grown in the presence of the vehicle (1% DMSO) only.

[2] = Lipophilicity (logkw) by reversed-phase chromatography (RP-HPLC); type: physicochemical; conditions: for logkw (Experimental): extrapolated to pure water; for logkw (Table S2): intercept of logk vs methanol fraction, n = 4
From the text: The main goal of the synthetic part was the synthesis of new derivatives of dicarboximides with decreased lipophilicity in comparison to the lead compounds, i.e., Ia–Ie and II. To reduce the lipophilicity of the new dicarboximides, a hydroxyalkyl chain connected with an aliphatic amine was introduced to the imides (Scheme 1). At the same time, the imide scaffold in derivatives from group 2 and 3 was the same as in lead compounds Ia–Ie and II, respectively (Figure 1). The structure of the imide was changed in derivatives 1b–1g. The lipophilicity of new derivatives was calculated using the Osiris Property Explorer program. For some compounds, lipophilicity was determined experimentally by a reversed-phase chromatography (detailed description is given in Materials and Methods and in the Supplementary Data, Table S2). Table 1 summarizes the calculated (clogP) and experimental (logkw) parameters of the lipophilicity of new derivatives.
The reversed-phase high-performance liquid chromatography (RP-HPLC) analysis was performed on a Merck–Hitachi LaChrom Elite System (Merck, Darmstadt, Germany) with diode array detector L-2455, thermostat L-2300, pump L-2130, and autosampler L-2200 and with the Waters XTerra MS RP-18 (3.5 μm, 150 × 4.6 mm) chromatographic column (Waters, Milford, MA, USA) as the stationary phase. The mobile phase consisted of methanol, water, and 0.1% (v/v) formic acid and was degassed by the use of the built-in membrane degasser. The methanol gradient grade for HPLC was purchased from Merck (Merck, Darmstadt, Germany) and formic acid from Polish Reagents (Polish Reagents, Gliwice, Poland); double-distilled water was used. Then, 5 μL of methanolic solutions (0.1%; m/v) of selected samples were applied to the chromatographic column by the use of an autosampler Hitachi L-2200 (LaChrom Elite, Hitachi-Merck, Darmstadt, Germany). The analysis was performed with the flow rate of 0.7 mL min^−1 in isocratic mode using various concentrations of organic modifier (methanol) in binary polar mobile phases; percentages of methanol in water were 45–70% (%, v/v) and changed by 5% per step. Chromatograms were detected at 254 nm and the temperature of the column was 25 °C. All experiments were repeated in triplicate, and the final results were taken to be the arithmetic means. Dead time was measured by the use of uracil (Calbiochem. Merck, Darmstadt, Germany). Statistical and regression analyses were performed using Statistica (ver. 13.3 for Windows). The chromatographic lipophilicity parameters ( logkW ) for selected samples were obtained by the extrapolation of the retention parameter logk to pure water, according to Equation (1):(1) logk=logkw−S·ϕ; where logkW is the value of the retention factor of a substance in pure water, S is the slope of the regression curve, and ϕ is the concentration of the organic modifier. The values of logk were calculated based on the raw HPLC data using the formula (2):(2) logk=logtR−t0/t0; where tR is the retention time and t0 is the dead retention time (determined for uracil).
The chromatographic lipophilicity parameters (logkௐ ) for selected samples were ob‐ tained by the extrapolation of the retention parame te r logk to pure water, according to […]
where logkௐ is the value of the retention factor of a substance in pure water, S is the slope of the regression curve, and φ is the concentration of the organic modifier. The values of logk were ca lcula ted based on the raw HPLC data using the formula: […]
logk ൌ log ሺ௧ೃ ି ௧బ௧బ ሻ (2) where tோ is the retention time and t଴ is the dead retention time (determined for ura‐ cil). The goodness of fit of the equation (1) to the experimental data was classified accord‐ ing to Jaffe (Jaffe, H. H. A Reexamination of the Hammet Equation. Chem. Rev. 1953, 53, In our RP‐HPLC experiments, the goodness of fit of the equation to the experi‐ mental data are excellent in most ca ses (r > 0.99). The F statistic val ues are, in all cases, […]

[3] = system: MOLT-4 (Human T-Lymphoid Cell Line); assay: MTT cytotoxicity assay, MOLT-4; type: cell-based; conditions: read-out: IC50 MOLT-4
Method: as §1, §2

[4] = system: K562 (myelogenous leukemia cell line); assay: MTT cytotoxicity assay, K562; type: cell-based, human; conditions: Homo sapiens, K562, 48 h, read-out: IC50 K562
Method: as §1, §2

[5] = system: HeLa (human cervix carcinoma) cells; assay: MTT cytotoxicity assay, HeLa; type: cell-based; conditions: read-out: IC50 HeLa
Method: as §1, §2

[6] = 48 h incubation, average (SD) of three experiments
[7] = MOLT-4, 48 h incubation, average (SD) of three experiments

logkw (Experimental) [2]	logkw (Table S2) [2]	SMILES	IC50 [1, 6]	IC50 [3, 7]	IC50 [4, 6]	IC50 [5, 6]	IC50 ([1]; 48 h)	IC50 ([3]; MOLT-4, 48 h)	IC50 [4]	IC50 ([5]; 48 h)
4.87	4.8734	CCN(CC)CC(O)CN1C(=O)C2C(C1=O)C1(C)C(=O)C2(C)C(c2ccccc2)=C1c1ccccc1 (stereo not drawn) [1d, 4-[3-(diethylamino)-2-hydroxypropyl]-1,7-dimethyl-8,9-diphenyl-4-azatricyclo[5.2.1.0^2,6]dec-8-ene-3,5,10-trione]	22 µM	37 µM	39 µM	59 µM	–	–	–	–
–	–	CCCCN(CCCC)CC(O)CN1C(=O)C2C(C1=O)C1(C)C(=O)C2(C)C(c2ccccc2)=C1c1ccccc1 (stereo not drawn) [1e, 4-[3-(dibutylamino)-2-hydroxypropyl]-1,7-dimethyl-8,9-diphenyl-4-azatricyclo [5.2.1.0^2,6]dec-8-ene-3,5,10-trione]	30 µM	8 µM	5.8 µM	3.2 µM	–	–	–	–
5.08	5.0846	CCNCC(O)CN1C(=O)C2C(C1=O)C1(CC)C(=O)C2(CC)C(c2ccccc2)=C1c1ccccc1 (stereo not drawn) [2b, 4-[3-(ethylamino)-2-hydroxypropyl]-1,7-diethyl-8,9-diphenyl-4-azatricyclo [5.2.1.0^2,6]dec-8-ene-3,5,10-trione]	3.4 µM	14 µM	8 µM	26 µM	–	–	–	–
–	–	CCC12C(=O)C(CC)(C(c3ccccc3)=C1c1ccccc1)C1C(=O)N(CC(O)CNC(C)C)C(=O)C12 (stereo not drawn) [Ie]	–	–	–	–	3.5 µM	15 µM	8 µM	10 µM
5.05	5.0532	CCC12C(=O)C(CC)(C(c3ccccc3)=C1c1ccccc1)C1C(=O)N(CCCN(C)C)C(=O)C12 (stereo not drawn) [Id]	–	–	–	–	–	–	–	–
5.09	5.0889	CCN(CC)CCN1C(=O)C2C(C1=O)C1(CC)C(=O)C2(CC)C(c2ccccc2)=C1c1ccccc1 (stereo not drawn) [Ib]	–	–	–	–	–	–	–	–
6.31	6.3071	CCNCC(O)CN1C(=O)C2C(C1=O)C1(c3ccccc3)CC2(c2ccccc2)C(c2ccccc2)=C1c1ccccc1 (stereo not drawn) [3b, 4-[3-(ethylamino)-2-hydroxypropyl]-1,7,8,9-tetraphenyl-4-azatricyclo[5.2.1.0^2,6]dec-8-ene-3,5-dione]	–	> 100 µM	> 100 µM	> 100 µM	–	–	–	–
–	–	CCC12C(=O)C(CC)(C(c3ccccc3)=C1c1ccccc1)C1C(=O)N(CCN3CCCCC3)C(=O)C12 (stereo not drawn) [Ic]	15 µM	15 µM	20 µM	18 µM	–	–	–	–
4.94	4.9430	CCC12C(=O)C(CC)(C(c3ccccc3)=C1c1ccccc1)C1C(=O)N(CCN(C)C)C(=O)C12 (stereo not drawn) [Ia]	–	–	–	–	–	–	–	–
4.83	4.8345	CC12C(=O)C(C)(C(c3ccccc3)=C1c1ccccc1)C1C(=O)N(CC(O)CN3CCOCC3)C(=O)C12 (stereo not drawn) [1g, 4-[-2-hydroxy-3-(morpholin-4-yl)propyl]-1,7-dimethyl-8,9-diphenyl-4-azatricyclo [5.2.1.0^2,6]dec-8-ene-3,5,10-trione]	–	> 100 µM	> 100 µM	> 100 µM	–	–	–	–
–	–	CCCCN(CCCC)CC(O)CN1C(=O)C2C(C1=O)C1(CC)C(=O)C2(CC)C(c2ccccc2)=C1c1ccccc1 (stereo not drawn) [2e, 4-[3-(dibutylamino)-2-hydroxypropyl]-1,7-diethyl-8,9-diphenyl-4-azatricyclo[5.2.1.0^2,6]dec-8-ene-3,5,10-trione]	1.2 µM	3.1 µM	4.1 µM	19 µM	–	–	–	–
–	–	CCCCN(CCCC)CC(O)CN1C(=O)C2C(C1=O)C1(c3ccccc3)CC2(c2ccccc2)C(c2ccccc2)=C1c1ccccc1 (stereo not drawn) [3e, 4-[3-(dibutylamino)-2-hydroxypropyl]-1,7,8,9-tetraphenyl-4-azatricyclo[5.2.1.0^2,6]dec-8-ene-3,5-dione]	7 µM	5.4 µM	6 µM	40 µM	–	–	–	–
–	–	CC12C(=O)C(C)(C(c3ccccc3)=C1c1ccccc1)C1C(=O)N(CCN3CCCCC3)C(=O)C12 (stereo not drawn) [1i, 4-[2-(piperidin-1-yl)ethy]-1,7-dimethyl-8,9-diphenyl-4-azatricyclo[5.2.1.0^2,6]dec-8-ene-3,5,10-trione]	23 µM	15 µM	30 µM	52 µM	–	–	–	–
–	–	CC12C(=O)C(C)(C(c3ccccc3)=C1c1ccccc1)C1C(=O)N(CC(O)CN3CCCCC3)C(=O)C12 (stereo not drawn) [1f, 4-[2-hydroxy-3-(piperidin-1-yl)propyl]-1,7-dimethyl-8,9-diphenyl-4-azatricyclo[5.2.1.0^2,6]dec-8-ene-3,5,10-trione]	21 µM	40 µM	18 µM	55 µM	–	–	–	–
–	–	CC12C(=O)C(C)(C(c3ccccc3)=C1c1ccccc1)C1C(=O)N(CCN3CCOCC3)C(=O)C12 (stereo not drawn) [1j, 4-[2-(morpholin-4-yl)ethy]-1,7-dimethyl-8,9-diphenyl-4-azatricyclo[5.2.1.0^2,6]dec-8-ene-3,5,10-trione]	–	> 100 µM	> 100 µM	> 100 µM	–	–	–	–
–	–	CN(C)CCN1C(=O)C2C(C1=O)C1(c3ccccc3)CC2(c2ccccc2)C(c2ccccc2)=C1c1ccccc1 (stereo not drawn) [II]	4 µM	18 µM	16 µM	20 µM	–	–	–	–
